Assay results published in patent US6743419B1, “Method of reducing hair growth employing sulfhydryl active compounds” (The Gillette Company, priority 1992, dated 2004).

Tests used:
hair growth = assay: Inhibition of hair growth (hair mass, treated vs untreated site); assay type: in vivo, hamster
[1] = Percent reduction in hair shaft cysteine (amino acid analysis of hamster flank organ hairs); assay type: in vivo; set-up: concentration or dose not given beside the values
[2] = Formation of cysteine-mixed disulfide in vitro (incubation with cystine or cysteine, HPLC); settings: pH 7.4, 37° C.
[3] = Reduction of cystine (generation of cysteine on incubation with cystine, HPLC); settings: 37 C, pH 7.4
[4] = Formation of cysteine-mixed disulfide in hair shafts after topical treatment; assay type: in vivo, Golden Syrian hamsters; settings: thirteen topical treatments over 18 days, flank organ

5′-Deoxy-5′-methylthioadenosine
Hair Mass Percent Reduction (hair growth; Dose 10%, Vehicle A, topical): 57 ± 6% | Hair Mass Treated (hair growth; Dose 10%, Vehicle A, topical): 1.25 ± 0.17 mg | Percent reduction in hair shaft cysteine ([1]; hamster flank organ hairs): 11%

O=C(O)CCCCC1CCSS1 (racemic) [DL-α-Lipoic acid (reduced form), DL-α-Lipoic acid]
Hair Mass Percent Reduction (hair growth; Dose 5%, Vehicle B, topical): 16 ± 5% | Hair Mass Treated (hair growth; Dose 5%, Vehicle B, topical): 2.67 ± 0.26 mg | Hair Mass Percent Reduction (hair growth; Dose 15%, Vehicle A, topical): 56 ± 6% | Hair Mass Treated (hair growth; Dose 15%, Vehicle A, topical): 0.74 ± 0.09 mg

O=S(=O)(O)CC(S)CS (stereo not shown) [2,3,-Dimercapto-1-propanesulfonic acid]
Hair Mass Percent Reduction (hair growth; Dose 20%, Vehicle A, topical): 79 ± 3% | Hair Mass Treated (hair growth; Dose 20%, Vehicle A, topical): 0.64 ± 0.08 mg | Percent reduction in hair shaft cysteine ([1]; hamster flank organ hairs): 40% | Formation of Cysteine mixed disulfide in-vitro [2]: YES | Reduction of Cystine [3]: YES

NCCS [2-Mercaptoethylamine (Cysteamine), 2-Mercaptoethylamine, reference compound]
Hair Mass Percent Reduction (hair growth; Dose 20%, Vehicle A, topical): 86 ± 3% | Hair Mass Treated (hair growth; Dose 20%, Vehicle A, topical): 0.30 ± 0.09 mg | Percent reduction in hair shaft cysteine ([1]; hamster flank organ hairs): 50% | Formation of Cysteine mixed disulfide in-vitro [2]: YES | Formation of Cysteine mixed disulfide in hair shaft [4]: YES | Reduction of Cystine [3]: YES

CCCCCCCCCCCCOC(=O)CCSCCC(=O)OCCCCCCCCCCCC [3,3′-Thiodipropionic acid dilauryl ester]
Hair Mass Percent Reduction (hair growth; Dose 5%, Vehicle D, topical): 30 ± 7% | Hair Mass Treated (hair growth; Dose 5%, Vehicle D, topical): 1.70 ± 0.21 mg | Hair Mass Percent Reduction (hair growth; Dose 20%, Vehicle D, topical): 50 ± 4% | Hair Mass Treated (hair growth; Dose 20%, Vehicle D, topical): 1.07 ± 0.10 mg

O=C(O)CCSCCC(=O)O [3,3′-Thiodipropionic acid]
Hair Mass Percent Reduction (hair growth; Dose 20%, Vehicle A, topical): 73 ± 4% | Hair Mass Treated (hair growth; Dose 20%, Vehicle A, topical): 0.76 ± 0.12 mg

CSCCCN [3-(Methylthio)-propylamine]
Hair Mass Percent Reduction (hair growth; Dose 2%, Vehicle A, topical): 22 ± 13% | Hair Mass Treated (hair growth; Dose 2%, Vehicle A, topical): 0.97 ± 0.13 mg

O=C(O)CCCSSCCCC(=O)O [3-Carboxypropyl disulfide]
Hair Mass Percent Reduction (hair growth; Dose 15%, Vehicle A, topical): 74 ± 4% | Hair Mass Treated (hair growth; Dose 15%, Vehicle A, topical): 0.70 ± 0.14 mg

C=CCSCC=C [Allyl sulfide]
Hair Mass Percent Reduction (hair growth; Dose 20%, Vehicle B, topical): 17 ± 10% | Hair Mass Treated (hair growth; Dose 20%, Vehicle B, topical): 1.74 ± 0.16 mg

C[C@H](CS)C(=O)N1CCC[C@H]1C(=O)O [Captopril, reference compound]
Hair Mass Percent Reduction (hair growth; Dose 10%, Vehicle A, topical): 57 ± 5% | Hair Mass Treated (hair growth; Dose 10%, Vehicle A, topical): 1.49 ± 0.20 mg | Percent reduction in hair shaft cysteine ([1]; hamster flank organ hairs): 26% | Formation of Cysteine mixed disulfide in-vitro [2]: YES | Reduction of Cystine [3]: YES

N[C@@H](CS)C(=O)NCC(=O)O [Cystenyl-glycine]
Hair Mass Percent Reduction (hair growth; Dose 15%, Vehicle A, topical): 55 ± 8% | Hair Mass Treated (hair growth; Dose 15%, Vehicle A, topical): 0.93 ± 0.18 mg | Reduction of Cystine [3]: YES

N[C@H](CS)C(=O)O [D-Cysteine]
Hair Mass Percent Reduction (hair growth; Dose 10%, Vehicle A, topical): 60 ± 3% | Hair Mass Treated (hair growth; Dose 10%, Vehicle A, topical): 1.20 ± 0.17 mg

CC(C)(SSC(C)(C)[C@@H](N)C(=O)O)[C@@H](N)C(=O)O [D-Penicillamine disulfide]
Hair Mass Percent Reduction (hair growth; Dose 15%, Vehicle A, topical): 55 ± 4% | Hair Mass Treated (hair growth; Dose 15%, Vehicle A, topical): 1.09 ± 0.23 mg

CC(C)(S)[C@@H](N)C(=O)O [D-Penicillamine, reference compound]
Hair Mass Percent Reduction (hair growth; Dose 15%, Vehicle A, topical): 65 ± 5% | Hair Mass Treated (hair growth; Dose 15%, Vehicle A, topical): 0.57 ± 0.07 mg | Percent reduction in hair shaft cysteine ([1]; hamster flank organ hairs): 50% | Formation of Cysteine mixed disulfide in-vitro [2]: YES | Formation of Cysteine mixed disulfide in hair shaft [4]: YES

CCN(CC)C(=S)S [Diethyldithiocarbamic acid]
Hair Mass Percent Reduction (hair growth; Dose 15%, Vehicle A, topical): 68 ± 7% | Hair Mass Treated (hair growth; Dose 15%, Vehicle A, topical): 0.65 ± 0.09 mg | Percent reduction in hair shaft cysteine ([1]; hamster flank organ hairs): 18%

O=S(=O)(O)CCO [Isethionic acid]
Hair Mass Percent Reduction (hair growth; Dose 15%, Vehicle A, topical): 50 ± 7% | Hair Mass Treated (hair growth; Dose 15%, Vehicle A, topical): 1.45 ± 0.22 mg

CCOC(=O)[C@@H](N)CS [L-Cysteine ethyl ester]
Hair Mass Percent Reduction (hair growth; Dose 20%, Vehicle A, topical): 82 ± 3% | Hair Mass Treated (hair growth; Dose 20%, Vehicle A, topical): 0.49 ± 0.08 mg

COC(=O)[C@@H](N)CS [L-Cysteine methyl ester]
Hair Mass Percent Reduction (hair growth; Dose 20%, Vehicle A, topical): 86 ± 3% | Hair Mass Treated (hair growth; Dose 20%, Vehicle A, topical): 0.28 ± 0.07 mg

CC(=O)N[C@@H](CS)C(=O)O [N-Acetyl-L-Cysteine, reference compound]
Hair Mass Percent Reduction (hair growth; Dose 15%, Vehicle A, topical): 80 ± 4% | Hair Mass Treated (hair growth; Dose 15%, Vehicle A, topical): 0.39 ± 0.07 mg

NCCSC[C@H](N)C(=O)O [S-2-Aminoethyl-L-cysteine]
Hair Mass Percent Reduction (hair growth; Dose 20%, Vehicle A, topical): 50 ± 11% | Hair Mass Treated (hair growth; Dose 20%, Vehicle A, topical): 0.99 ± 0.20 mg

O=C(O)c1cc(/N=N/c2ccc(S(=O)(=O)Nc3ccccn3)cc2)ccc1O [Sulfasalazine, reference compound]
Hair Mass Percent Reduction (hair growth; Dose 20%, Vehicle C, topical): 61 ± 6% | Hair Mass Treated (hair growth; Dose 20%, Vehicle C, topical): 0.88 ± 0.14 mg | Percent reduction in hair shaft cysteine ([1]; hamster flank organ hairs): (−2%)

O=C(O)c1ccccc1S [Thiosalicylic acid]
Hair Mass Percent Reduction (hair growth; hamster, in vivo): 89 ± 2% | Hair Mass Treated (hair growth; hamster, in vivo): 0.18 ± 0.04 mg | Percent reduction in hair shaft cysteine ([1]; hamster, in vivo): 14%

O=C(O)[C@@H](S)[C@@H](S)C(=O)O [meso-2,3,-Dimercaptosuccinic acid]
Hair Mass Percent Reduction (hair growth; Dose 20%, Vehicle C, topical): 50 ± 5% | Hair Mass Treated (hair growth; Dose 20%, Vehicle C, topical): 1.08 ± 0.16 mg | Percent reduction in hair shaft cysteine ([1]; hamster flank organ hairs): 22% | Reduction of Cystine [3]: YES
